According to patent publication US7001607B1, “Artificial tear replacement solution” (Bausch & Lomb Incorporated, priority 1999, dated 2006):

Assay: surface tension of components
Format: physicochemical

| Compound | surface tension σ |
| --- | --- |
| Fc1c(F)c(F)c2c(c1F)c(F)c(F)c1c(F)c(F)c(F)c(F)c12 [perfluorophenanthrene] | 19 mNm |
| CC[N+]1(CC)CC[N+](CC)(CC)CC1.O=C([O-])C(F)(F)C(F)(F)C(F)(F)C(F)(F)C(F)(F)C(F)(F)C(F)(F)F.O=C([O-])C(F)(F)C(F)(F)C(F)(F)C(F)(F)C(F)(F)C(F)(F)C(F)(F)F [tetraethylpiperazinium salt of perfluorooctanoic acid] | 15.9 mNm |
| perfluoroalkylethanol oxethylate | 19 mNm |
